Assay results published in patent US10780092B2, “Fused pyrazine derivatives useful as soluble guanylate cyclase stimulators” (Merck Sharp & Dohme Corp., priority 2016, dated 2020).

Experiments:
sGC α1/β1 heterodimer = sGC α1/β1 heterodimer (Homo sapiens (Human), UniProt Q02108+Q02153); test: Cell-based sGC functional assay (CASA assay), cGMP by HTRF; settings: CHO-K1/sGC cells; for Emax: CHO-K1, cGMP production as percentage of maximum of compound A (set to 100%), read-out: % Activation; for EC50: inflection point of cGMP production, 4P fit, read-out: IP
Summary of the method: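 cGMP made in CHO-K1/sGC (human α1/β1) cells is read by HTRF after compound treatment for 1 hr at 37° C, following 30 min at 25° C with or without 1 μM DETA-NO; IBMX 0.5 mM present. Values are % of standard compound maximum; 4P fit.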

[1] = molecular target: human recombinant sGC enzyme (Homo sapiens (Human), UniProt Q02108+Q02153); test: SEC competition binding assay with [3H] Compound B radioligand; settings: displacement of 1.6 nM [3H] Compound B, 24 h at 37° C.
Summary of the method: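 Competition format: [3H] Compound B (1.6 nM) displaced from human recombinant sGC over 24 h at 37° C. in triethanolamine pH 7.4 buffer with MgCl2, BSA, DTT, 300 μM DETA/NO and 400 μM GTP (1% DMSO). Gel-filtration eluates counted by liquid scintillation; 1 μM Compound B defined non-specific binding; Ki by one-site fit.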

Emax (sGC α1/β1 heterodimer)	EC50 (sGC α1/β1 heterodimer)	Ki [1]	% Activation (sGC α1/β1 heterodimer; cGMP production as percentage of maximum of compound A (set to 100%))	SMILES
169%	138 nM	0.862 nM		CC1(c2ccc(F)c(Cl)c2O)C(=O)Nc2nc(-c3cn4ccnc4c(Cc4cc(F)cc(F)c4)n3)nc(N)c21 (stereo not drawn) [Example 96-B, 4-Amino-5-(3-chloro-4-fluoro-2-hydroxyphenyl)-2-{8-[(3,5-difluorophenyl)methyl]imidazo[1,2-a]pyrazin-6-yl}-5-methyl-5,7-dihydro-6H-pyrrolo[2,3-d]pyrimidin-6-one]
73%	3300 nM	8.31 nM		CC1(c2cc(O)c(Cl)cn2)C(=O)Nc2nc(-c3cn4ccnc4c(Cc4c(F)cccc4F)n3)nc(N)c21 (stereo not drawn) [Example 98-B, 4-Amino-5-(5-chloro-4-hydroxypyridin-2-yl)-2-{8-[(2,6-difluorophenyl)methyl]imidazo[1,2-a]pyrazin-6-yl}-5-methyl-5,7-dihydro-6H-pyrrolo[2,3-d]pyrimidin-6-one]
97%	553 nM	0.803 nM		Cc1cn2cc(-c3nc(N)c4c(n3)NC(=O)C4(C)c3ccc(Cl)c(O)c3)nc(Cc3cccc(F)c3)c2n1 (stereo not drawn) [Example 99-A, 4-Amino-5-(4-chloro-3-hydroxyphenyl)-2-{8-[(3-fluorophenyl)methyl]-2-methylimidazo[1,2-a]pyrazin-6-yl}-5-methyl-5,7-dihydro-6H-pyrrolo[2,3-d]pyrimidin-6-one]
106%	652 nM	0.544 nM		Cc1cn2cc(-c3nc(N)c4c(n3)NC(=O)C4(C)c3ccc(Cl)c(O)c3)nc(Cc3ccccc3F)c2n1 (stereo not drawn) [Example 100-A, 4-Amino-5-(4-chloro-3-hydroxyphenyl)-2-{8-[(2-fluorophenyl)methyl]-2-methylimidazo[1,2-a]pyrazin-6-yl}-5-methyl-5,7-dihydro-6H-pyrrolo[2,3-d]pyrimidin-6-one]
53%	282 nM	0.162 nM		CC1(c2cc(O)c(C#N)c(F)c2)C(=O)Nc2nc(-c3cn4ccnc4c(Cc4cc(F)ccc4F)n3)nc(N)c21 (stereo not drawn) [Example 101-B, 4-(4-Amino-2-{8-[(2,5-difluorophenyl)methyl]imidazo[1,2-a]pyrazin-6-yl}-5-methyl-6-oxo-6,7-dihydro-5H-pyrrolo[2,3-d]pyrimidin-5-yl)-2-fluoro-6-hydroxybenzonitrile]
73%	382 nM	0.118 nM		CC1(c2cc(O)c(C#N)c(F)c2)C(=O)Nc2nc(-c3cn4ccnc4c(Cc4cc(F)cc(F)c4F)n3)nc(N)c21 (stereo not drawn) [Example 102-B, 4-(4-Amino-5-methyl-6-oxo-2-{8-[(2,3,5-trifluorophenyl)methyl]imidazo[1,2-a]pyrazin-6-yl}-6,7-dihydro-5H-pyrro1o[2,3-d]pyrimidin-5-yl)-2-fluoro-6-hydroxybenzonitrile]
78%	231 nM	0.175 nM		CC1(c2cc(O)c(Cl)cn2)C(=O)Nc2nc(-c3cn4ccnc4c(Cc4cc(F)cc(F)c4F)n3)nc(N)c21 (stereo not drawn) [Example 103-B, 4-Amino-5-(5-chloro-4-hydroxypyridin-2-yl)-5-methyl-2-{8-[(2,3,5-trifluorophenyl)methyl]imidazo[1,2-a]pyrazin-6-yl}-5,7-dihydro-6H-pyrrolo[2,3-d]pyrimidin-6-one]
81%	902 nM	1.84 nM		CC1(c2ccc(Cl)c(O)c2)C(=O)Nc2nc(-c3cn4ncnc4c(CCCCF)n3)nc(N)c21 (stereo not drawn) [Example 106-A, 4-Amino-5-(4-chloro-3-hydroxyphenyl)-2-(8-(4-fluorobutyl)-[1,2,4]triazolo[1,5-a]pyrazin-6-yl)-5-methyl-5,7-dihydro-6H-pyrrolo[2,3-d]pyrimidin-6-one]
118%	198 nM	0.924 nM		CC1CCC(Cc2nc(-c3nc(N)c4c(n3)NC(=O)C4(C)c3ccc(Cl)c(O)c3)cn3ccnc23)CC1 (stereo not drawn) [Example 108-AA, 4-Amino-5-(4-chloro-3-hydroxyphenyl)-5-methyl-2-{8-[(4-methylcyclo-hexyl)methyl]imidazo-[1,2-a]pyrazin-6-yl}-5,7-dihydro-6H-pyrrolo-[2,3-d]pyrimidin-6-one]
	210 nM	0.524 nM	127%	CC1CCC(Cc2nc(-c3nc(N)c4c(n3)NC(=O)C4(C)c3ccc(Cl)c(O)c3)cn3ccnc23)CC1 (stereo not drawn) [Example 108-AB, 4-Amino-5-(4-chloro-3-hydroxyphenyl)-5-methyl-2-{8-[(4-methylcyclohexyl)methyl]imidazo[1,2-a]pyrazin-6-yl}-5,7-dihydro-6H-pyrrolo[2,3-d]pyrimidin-6-one]
159%	437 nM	1.62 nM		CC1(c2cc(O)ccn2)C(=O)Nc2nc(-c3cn4ncnc4c(Cc4cccc(F)c4)n3)nc(N)c21 (stereo not drawn) [Example 110-B, 4-Amino-2-{8-[(3-fluorophenyl)methyl]-[1,2,4]triazolo[1,5-a]-pyrazin-6-yl}-5-(4-hydroxypyridin-2-yl)-5-methyl-5,7-dihydro-6H-pyrrolo[2,3-d]pyrimidin-6-one]
86%	1540 nM	1.74 nM		CC1(c2nccc(O)c2Cl)C(=O)Nc2nc(-c3cn4ccnc4c(Cc4cc(F)cc(F)c4)n3)nc(N)c21 (stereo not drawn) [Example 111-B, 4-Amino-5-(3-chloro-4-hydroxypyridin-2-yl)-2-{8-[(3,5-difluorophenyl)-methyl]imidazo[1,2-a]-pyrazin-6-yl}-5-methyl-5,7-dihydro-6H-pyrrolo-[2,3-d]pyrimidin-6-one]
112%	16 nM	1.78 nM		CC1(c2cc(Cl)c(O)c(Cl)c2)C(=O)Nc2nc(-c3cn4ncnc4c(CC4CCCCC4)n3)nc(N)c21 (stereo not drawn) [Example 112-B, 4-Amino-2-(8-(cyclo-hexylmethyl)-[1,2,4]-triazolo[1,5-a]pyrazin-6-yl)-5-(3,5-dichloro-4-hydroxyphenyl)-5-methyl-5,7-dihydro-6H-pyrrolo[2,3-d]pyrimidin-6-one]
91%	125 nM	2.9 nM		CC1(c2cc(Cl)c(O)c(Cl)c2)C(=O)Nc2nc(-c3cn4ccnc4c(CC4CCCCC4)n3)nc(N)c21 (stereo not drawn) [Example 113-A, 4-Amino-2-(8-(cyclo-hexylmethyl)imidazo-[1,2-a]pyrazin-6-yl)-5-(3,5-dichloro-4-hydroxy-phenyl)-5-methyl-5,7-dihydro-6H-pyrrolo-[2,3-d]-pyrimidin-6-one]
103%	457 nM	7.95 nM		CCCCc1nc(-c2nc(N)c3c(n2)NC(=O)C3(C)c2cc(O)ccn2)cn2ncnc12 (stereo not drawn) [Example 118-B, 4-Amino-2-(8-butyl-[1,2,4]triazolo[1,5-a]-pyrazin-6-yl)-5-(4-hydroxypyridin-2-yl)-5-methyl-5,7-dihydro-6H-pyrrolo[2,3-d]-pyrimidin-6-one]
75%	681 nM	2.76 nM		CC(C)CCc1nc(-c2nc(N)c3c(n2)NC(=O)C3(C)c2cc(O)ccn2)cn2ncnc12 (stereo not drawn) [Example 119-B, 4-Amino-5-(4-hydroxypyridin-2-yl)-2-(8-isopentyl-[1,2,4]-triazolo[1,5-a]pyrazin-6-yl)-5-methyl-5,7-dihydro-6H-pyrrolo-[2,3-d]pyrimidin-6-one]
120%	369 nM	0.382 nM		CC1(c2cccc(O)c2)C(=O)Nc2nc(-c3cn4ccnc4c(Cc4cccc(F)c4)n3)nc(N)c21 (stereo not drawn) [Example 121-B, 4-Amino-2-{8-[(3-fluorophenyl)methyl]imidazo[1,2-a]pyrazin-6-yl}-5-(3-hydroxyphenyl)-5-methyl-5,7-dihydro-6H-pyrrolo[2,3-d]pyrimidin-6-one]
